The source of these data is patent US9458448B2, “Manufacturing method for silica encapsulated single-enzyme nanoparticles and single-enzyme nanoparticles manufactured by means of method” (Korea University Research and Business Foundation, priority 2011, dated 2016).

Holding throughout (format): biochemical
Assay [1] has as its system α-chymotrypsin (CT), silica encapsulated single-enzyme nanoparticles SEEN-CT (Example 1). As to the kind of experiment: Kinetic constants by hydrolysis of MUTMAC, silica encapsulated single-enzyme nanoparticles SEEN-CT (Example 1). As to the method: Silica encapsulated single-enzyme nanoparticles were prepared using α-chymotrypsin (CT) as schematically described in FIG. 1. Specifically, the synthesis of the silica encapsulated single-enzyme nanoparticles began with dissolution of the enzyme in an aqueous solution with an organic solvent. CT was dissolved in a 10 mM Bis-Tris propane (pH 7.8) buffer containing 1% isopropanol and 2 mM calcium chloride to a concentration of 1 mg/mL. Subsequently, 2 mM AOT added to hexane of the same volume was mixed with the enzyme solution. After stirring at room temperature for 15 minutes, phase separation was conducted through centrifugation. Only the hexane layer containing the solubilized enzyme was separated and then hexane was evaporated using nitrogen gas to adjust the concentration to 1 mg/mL.
Next, a mixture solution of TMOS:hexane (1:1) was added to the enzyme-containing hexane solution with a volume of 1% thereof and stored at 4° C. for 17 hours.
Then, after storing for 1.5 hours at room temperature and adding a 200 mM sodium phosphate buffer (pH 7.8) corresponding to 2 times the volume of the hexane, the mixture was stirred at 250 rpm for 10 minutes. After phase separation occurred through centrifugation, only the aqueous solution layer was separated. Then, impurities were filtered off through a 100-nm filter.
Subsequently, the enzyme extracted into the aqueous solution phase was stored at 4° C. for 3 days. After the 3 days, unreacted TMOS and AOT molecules were removed while replacing with a 10 mM sodium phosphate buffer using an ultrafiltration device. The as-synthesized silica encapsulated single-enzyme nanoparticles were stored at 4° C. until use.
(§1) The kinetic constants of SEEN-CT (Example 1), RM-SEEN-CT (Comparative Example 1) and free enzyme (free CT) were measured by hydrolysis of MUTMAC. The values were obtained by nonlinear regression based on the least square method.

In assay [2] the test system is α-chymotrypsin (CT), free enzyme (free CT). The assay is described as follows: Kinetic constants by hydrolysis of MUTMAC, free enzyme (Free-CT). The protocol:
as §1

Assay [3] concerns α-chymotrypsin (CT), reverse micelle-silica encapsulated single-enzyme nanoparticles RM-SEEN-CT (Comparative Example 1). The assay is described as follows: Kinetic constants by hydrolysis of MUTMAC, reverse micelle-silica encapsulated RM-SEEN-CT (Comparative Example 1). The protocol: Hexane containing 100 mM AOT as surfactant, and a small amount of a 10 mM Bis-Tris propane buffer containing enzymes were added. The amount of the added aqueous solution was adjusted such that its molar concentration was 20 times that of AOT. Then, the enzymes were solubilized to hexane by stirring for 10 minutes. The procedure following the solubilization of the enzymes in hexane was similar to Example 1.
In the reverse micelle method, which was employed for comparison with the method for manufacturing silica encapsulated single-enzyme nanoparticles according to the present disclosure, condensation of the silica precursor proceeds faster because more water molecules are present around the enzyme. As a result, a thicker silica network will be formed and the Michaelis-Menten constant may increase.
as §1

Setting [4] is: SEEN-CT, hydrolysis of MUTMAC, nonlinear regression, least square method.
Setting [5] is: nonlinear regression, least square method.
Where [6] appears, read: RM-SEEN-CT, hydrolysis of MUTMAC, nonlinear regression, least square method.

Take `Cc1cc(=O)oc2cc(OC(=O)/C=C/c3ccc([N+](C)(C)C)cc3)ccc12` [MUTMAC]: the results for the “decrease of catalytic efficiency, kcat/Km, as compared to free CT” value in assay [1] (SEEN-CT as compared to free CT) and in assay [3] (RM-SEEN-CT as compared to free CT) were 21% and “about 48%”, respectively. In addition, the kcat/Km in assay [1] (SEEN-CT, hydrolysis of MUTMAC) is 6.0 ± 0.1 × 10^5M^−1s^−1; in assay [2] it was 7.6 ± 0.2 × 10^5M^−1s^−1; in assay [3] (RM-SEEN-CT, hydrolysis of MUTMAC), 3.9 ± 0.1 × 10^5M^−1s^−1. Further, the values for the Km in assay [1] (setting [4]), in assay [2] (setting [5]) and in assay [3] (setting [6]) were 42.4 ± 0.1 µM, 41.8 ± 0.1 µM and 76.8 ± 3.6 µM, respectively. Also, the values for the kcat in assay [1] (setting [4]), in assay [2] (setting [5]) and in assay [3] (setting [6]) were 25.4 ± 0.1 s⁻¹, 31.8 ± 0.8 s⁻¹ and 30.3 ± 0.8 s⁻¹, respectively.
